Source: patent US20060241162A1, “Optically active (R)-hydantoin derivative” (priority 2005, published 2006)
“Also recorded” adds a separate entry of the source.

Test system: model rats for renal insufficiency
Assay: Suppressive action to the progression of renal failure in adenine-induced renal insufficiency model rats
Assay type: in vivo, Wistar-strain male rats
Text: (1) Suppressive Action of the Optical Isomer to the Progression of Renal Failure
Adenine was orally administered to Wistar-strain male rats of eight weeks age to prepare a renal insufficiency model. […] Further, a value of creatinine clearance (mL/kg/hr) decreased from 315.3±13.8 to 25.7±4.4 whereupon renal functions lowered to about one-tenth.
From the 7th to the 17th days from administration of adenine, each of (S)-(−)- 5-hydroxy-1-methylhydantoin, (R)-(+)-5-hydroxy-1-methylhydantoin and the racemate at the dose of 100 mg/kg or 200 mg/kg was orally administered to the rat in which renal insufficiency was induced by adenine. The creatinine levels in blood before and after the administration of the test drug were compared whereupon a suppressive action of the test drug to an increase of creatinine (ΔCr) accompanied by the progress of renal insufficiency was checked and the results are shown in FIG. 1 and FIG. 2. Five rats were used as a group for the test. The average value ± standard error was calculated and the significant difference between the test drug group and the diseased control group was statistically analyzed by means of Dunnett's test or Student-t test (*; p<0.05).

CN1C(=O)NC(=O)[C@H]1O [(R)-(+)-5-hydroxy-1-methylhydantoin]
suppressive action to the progression of renal failure (as compared with the S-form and the racemate, oral, listed as R-form): excellent suppressive action; also recorded: particularly an excellent suppressive effect | suppressive action to an increase of creatinine in blood (ΔCr) (oral 100 mg/kg or 200 mg/kg, 7th to 17th day of adenine, vs diseased control, p<0.05, FIG. 1 and FIG. 3): significantly suppressed
